Two molecules from ChEMBL document CHEMBL1208702, “Use of 2-[(18)F]fluoroethylazide for the Staudinger ligation - Preparation and characterisation of GABA(A) receptor binding 4-quinolones” (Bioorg Med Chem Lett, 2010) can be followed below.

The term Ki denotes a measure of affinity in units of concentration, obtained from inhibition or displacement. A higher Ki goes with lower affinity.

This assay can be described thus: Displacement of [3H]Ro151788 from GABA-A receptor in Wistar rat cerebellar membrane after 1 hr by liquid scintillation counting. The assay is classed as cell membranes, Cerebellum.

SMILES strings stand for the structures.

For the molecule `O=C(NCCF)c1c[nH]c2ccc(Cc3ccccc3)cc2c1=O`, the Ki was determined as 0.7 nM.

In the case of `O=C(NCCCF)c1c[nH]c2ccc(Cc3ccccc3)cc2c1=O`, the affinity, expressed as Ki, was 0.13 nM.
